# Data reported in article PMC2765255 (Journal of medicinal chemistry, 2009).
# Where a name gives a salt, the structure may show the parent alone.
# Experiments:
# [1] = target: S. aureus CrtM (dehydrosqualene synthase) (Staphylococcus aureus, UniProt A9JQL9); experiment: CrtM enzyme inhibition assay; assay type: biochemical
# [2] = test system: STX biosynthesis in S. aureus; experiment: Staphyloxanthin biosynthesis inhibition assay; assay type: cell-based; conditions: Staphylococcus aureus, 72 h, read-out: staphyloxanthin IC50
# [3] = target: human squalene synthase (SQS) (Homo sapiens, UniProt P37268); assay type: biochemical; conditions: experimental data
# S. aureus = conditions: mice treated with 1, compared to control group; cited from earlier work
# Chain of S. aureus CrtM (dehydrosqualene synthase) (A9JQL9 whole entry): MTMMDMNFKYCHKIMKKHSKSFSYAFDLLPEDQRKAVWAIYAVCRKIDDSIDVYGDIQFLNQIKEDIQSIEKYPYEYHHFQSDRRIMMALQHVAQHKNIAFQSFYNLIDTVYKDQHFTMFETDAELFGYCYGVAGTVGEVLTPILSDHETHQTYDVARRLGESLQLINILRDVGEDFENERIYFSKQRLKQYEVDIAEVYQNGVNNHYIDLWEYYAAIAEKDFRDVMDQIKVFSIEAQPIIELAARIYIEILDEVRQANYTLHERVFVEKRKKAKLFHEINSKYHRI
# Chain of human squalene synthase (SQS) (P37268 31-370): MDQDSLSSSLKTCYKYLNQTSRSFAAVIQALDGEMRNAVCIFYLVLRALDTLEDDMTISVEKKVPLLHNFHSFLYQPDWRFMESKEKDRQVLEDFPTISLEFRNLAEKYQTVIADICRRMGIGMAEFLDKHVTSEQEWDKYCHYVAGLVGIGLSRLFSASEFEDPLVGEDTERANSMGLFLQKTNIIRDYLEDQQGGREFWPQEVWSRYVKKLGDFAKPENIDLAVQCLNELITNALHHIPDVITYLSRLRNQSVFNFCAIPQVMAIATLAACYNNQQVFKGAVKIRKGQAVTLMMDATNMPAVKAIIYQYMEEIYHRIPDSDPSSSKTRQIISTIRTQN
compound,measurement,setting,value
"CCCc1ccc(Oc2cccc(CCCC(P(=O)([O-])[O-])S(=O)(=O)[O-])c2)cc1.[K+].[K+].[K+] (stereo not shown) [Compound 6, 1-Phosphono-4-[3-(4-propylphenoxy)phenyl]butylsulfonic Acid Tripotassium Salt]",as active as 1 in CrtM inhibition,[1],~4 ×
"O=P(O)(O)C(CCCc1cccc(Oc2ccc(O)cc2)c1)S(=O)(=O)O (stereo not shown) [Compound 27, 1-Phosphono-4-[3-(4-hydroxyphenoxy)phenyl]butylsulfonic Acid Tripotassium Salt]",IC50,[2],6.8 µM
"O=P([O-])([O-])C(CCCc1cccc(Oc2ccc(F)cc2)c1)S(=O)(=O)[O-].[K+].[K+].[K+] (stereo not shown) [Compound 5, 1-Phosphono-4-[3-(4-fluorophenoxy)phenyl]butylsulfonic Acid Tripotassium Salt]",as active as 1 in CrtM inhibition,[1],~4 ×
O=P([O-])([O-])C(CCCc1ccc(-c2ccc(C(F)(F)F)cc2)cc1)P(=O)([O-])[O-].[K+].[K+].[K+].[K+] [Compound 3],pIC50(CrtM) – pIC50(hSQS),[3],−1.86 M
same,IC50,[1],0.182 µM
"O=P([O-])([O-])C(CCc1cccc(Oc2ccccc2)c1)S(=O)(=O)[O-].[K+].[K+].[K+] (stereo not shown) [Compound 15, 1-Phosphono-3-(3-phenoxyphenyl)propylsulfonic Acid Tripotassium Salt]",pIC50(CrtM) – pIC50(hSQS),[3],−2.96 M
"O=P([O-])([O-])C(CCCc1cccc(Oc2ccccc2)c1)S(=O)(=O)[O-].[K+].[K+].[K+] (stereo not shown) [Compound 1, 1-Phosphono-4-(3-phenoxyphenyl)butylsulfonic Acid Tripotassium Salt]",bacterial counts in kidneys reduced,S. aureus,98%
"O=P([O-])([O-])[C@H](CCCc1cccc(Oc2ccccc2)c1)S(=O)(=O)[O-].[K+].[K+].[K+] [Compound (S)-1, (1S)-1-Phosphono-4-(3-phenoxyphenyl)butylsulfonic Acid Tripotassium Salt]",more active than its (R)-enantiomer in CrtM inhibition,[1]; fold,~30 ×
"O=P([O-])([O-])C(Cc1cccc(Oc2ccccc2)c1)S(=O)(=O)[O-].[K+].[K+].[K+] (stereo not shown) [Compound 14, 1-Phosphono-2-(3-phenoxyphenyl)ethylsulfonic Acid Tripotassium Salt]",pIC50(CrtM) – pIC50(hSQS),[3],−2.66 M
"O=P([O-])([O-])C(CCCc1cccc(Oc2ccccc2Cc2ccccc2)c1)S(=O)(=O)[O-].[K+].[K+].[K+] (stereo not shown) [Compound 8, 1-Phosphono-4-[3-(2-benzylphenoxy)phenyl]butylsulfonic Acid Tripotassium Salt]",less active than 1 in CrtM inhibition,[1],≈ 5 ×
